Reference: patent US9580449B2, “Compositions and methods for the production of pyrimidine and pyridine compounds with BTK inhibitory activity” (Merck Patent GmbH, priority 2011, dated 2017)

What follows are compounds tested on PBMC (assay: Time Dependent PBMC IC50 assay). Settings: not given.
Type: cell-based
Description: Compounds described by embodiments of the present invention were assayed using a time dependent PMBC assay.

| Compound | IC50 [nM] |
| --- | --- |
| C=CC(=O)N1CC[C@H](CNc2ncnc(N)c2-c2ccc(Oc3ccccc3)cc2)C1 [A4, (R)-1-(3-(((6-amino-5-(4-phenoxyphenyl)pyrimidin-4-yl)amino)methyl)pyrrolidin-1-yl)prop-2-en-1-one] | < 1000 |
| C=CC(=O)N1CC[C@@H](COc2ncnc(N)c2-c2ccc(Oc3ccccc3)cc2)C1 [A38, (R)-1-(3-(((6-amino-5-(4-phenoxyphenyl)pyrimidin-4-yl)oxy)methyl)pyrrolidin-1-yl)prop-2-en-1-one] | < 1000 |
| C=CC(=O)N[C@@H]1CCC[C@H](Nc2ncnc(N)c2-c2ccc(Oc3ccccc3)cc2)C1 (relative stereo) [A51, N-(cis-3-((6-amino-5-(4-phenoxyphenyl)pyrimidin-4-yl)amino)cyclohexyl)acrylamide] | < 1000 |
| C=CC(=O)N1CCCC(Nc2ncnc(N)c2-c2ccc(Oc3ccccc3)cc2)C1 (stereo not shown) [A253, 1-(3-((6-amino-5-(4-phenoxyphenyl)pyrimidin-4-yl)amino)piperidin-1-yl)prop-2-en-1-one] | < 1000 |
| C=CC(=O)N1CCC(CNc2ncnc(N)c2-c2ccc(Oc3ccccc3)cc2)C1 (stereo not shown) [A262, 1-(3-(((6-amino-5-(4-phenoxyphenyl)pyrimidin-4-yl)amino)methyl)pyrrolidin-1-yl)prop-2-en-1-one] | < 1000 |
| C=CC(=O)N1CCC(CNc2ncnc(N)c2-c2ccc(Oc3cccc(F)c3)cc2)CC1 [A34, 1-(4-(((6-amino-5-(4-(3-fluorophenoxy)phenyl)pyrimidin-4-yl)amino)methyl)piperidin-1-yl)prop-2-en-1-one] | < 1000 |
| C=CC(=O)Nc1cccc(Oc2ncncc2-c2ccc(Oc3ccccc3)cc2)c1 [A255, N-(3-((5-(4-phenoxyphenyl)pyrimidin-4-yl)oxy)phenyl)acrylamide] | < 1000 |
| C=CC(=O)N1CC2(CC(Nc3ncnc(N)c3-c3ccc(Oc4ccccc4)cc3)C2)C1 [A124, 1-(6-((6-amino-5-(4-phenoxyphenyl)pyrimidin-4-yl)amino)-2-azaspiro[3.3]heptan-2-yl)prop-2-en-1-one] | < 1000 |
| C=CC(=O)N1CCC[C@@H](Nc2ncnc(N)c2-c2ccc(Oc3ccccc3)cc2)C1 [A247, (R)-1-(3-((6-amino-5-(4-phenoxyphenyl)pyrimidin-4-yl)amino)piperidin-1-yl)prop-2-en-1-one] | < 1000 |

The compounds below were run against full-length human BTK (Homo sapiens (Human), UniProt Q06187) (assay: BTK IC50 enzyme assay (microfluidic off-chip mobility shift kinase assay)). Settings: incubated for 90 min. at 27 C; read-out: Time Dependent BTK Enzyme Assay IC50.
Sequence of full-length human BTK (Q06187 whole entry): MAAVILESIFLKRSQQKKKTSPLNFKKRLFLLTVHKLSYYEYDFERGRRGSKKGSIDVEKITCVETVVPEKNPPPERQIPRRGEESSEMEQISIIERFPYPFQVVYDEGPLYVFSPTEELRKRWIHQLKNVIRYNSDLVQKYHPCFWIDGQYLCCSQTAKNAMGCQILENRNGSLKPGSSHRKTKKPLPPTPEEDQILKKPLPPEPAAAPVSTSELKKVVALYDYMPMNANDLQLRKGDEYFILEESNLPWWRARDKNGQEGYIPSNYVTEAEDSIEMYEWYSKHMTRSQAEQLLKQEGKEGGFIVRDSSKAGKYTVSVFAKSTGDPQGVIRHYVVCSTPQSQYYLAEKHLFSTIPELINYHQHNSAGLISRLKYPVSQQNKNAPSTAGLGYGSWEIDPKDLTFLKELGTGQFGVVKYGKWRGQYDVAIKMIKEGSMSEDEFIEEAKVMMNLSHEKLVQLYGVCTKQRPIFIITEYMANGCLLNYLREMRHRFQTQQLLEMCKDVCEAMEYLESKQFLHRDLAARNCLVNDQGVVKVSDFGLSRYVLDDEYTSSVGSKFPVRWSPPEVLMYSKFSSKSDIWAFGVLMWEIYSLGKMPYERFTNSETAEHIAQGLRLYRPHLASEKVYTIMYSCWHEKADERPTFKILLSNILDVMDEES
Type: biochemical
In short: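 Read-out separates phosphorylated peptide product from substrate by charge/mass in a mobility shift format with full-length human BTK.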

| Compound | IC50 [nM] |
| --- | --- |
| C=CC(=O)Nc1cccc(Oc2ncnc(N)c2-c2cccc(OC(F)(F)F)c2)c1 [A164, N-(3-((6-amino-5-(3-(trifluoromethoxy)phenyl)pyrimidin-4-yl)oxy)phenyl)acrylamide] | > 1000 |
| C=CC(=O)N1CCC(CNc2ncnc(N)c2-c2ccc3c(c2)OCCO3)CC1 [A84, 1-(4-(((6-amino-5-(2,3-dihydrobenzo[b][1,4]dioxin-6-yl)pyrimidin-4-yl)amino)methyl)piperidin-1-yl)prop-2-en-1-one] | > 1000 |
| C=CC(=O)Nc1cccc(Oc2ncnc(N)c2-c2ccc(OCc3ccc(F)cc3)cc2)c1 [A344, N-(3-{6-Amino-5-[4-(4-fluoro-benzyloxy)-phenyl]-pyrimidin-4-yloxy}-phenyl)-acrylamide] | < 100 |
| C=CC(=O)N1CCC(CNc2ncnc(N)c2-c2ccc(Oc3ccccc3)c(F)c2F)CC1 [A88, 1-(4-(((6-amino-5-(2,3-difluoro-4-phenoxyphenyl)pyrimidin-4-yl)amino)methyl)piperidin-1-yl)prop-2-en-1-one] | < 100 |
| CC#CC(=O)c1cccc(CNc2ncnc(N)c2-c2ccc(Oc3ccccc3)cc2)c1 [A141, 1-(3-((6-Amino-5-(4-phenoxyphenyl)-pyrimidin-4-ylamino)-methyl)-phenyl)-but-2-yn-1-one] | < 1000 |
| C=CC(=O)Nc1cccc(Oc2ccnc(N)c2-c2ccc(OCc3ccccc3)cc2)c1 [A149, N-(3-((2-amino-3-(4-(benzyloxy)phenyl)pyridin-4-yl)oxy)phenyl)acrylamide] | < 1000 |
| C=CC(=O)N1CCC(CNc2ncnc(N)c2-c2ccc(Oc3ccncc3)cc2)CC1 [A97, 1-(4-(((6-amino-5-(4-(pyridin-4-yloxy)phenyl)pyrimidin-4-yl)amino)methyl)piperidin-1-yl)prop-2-en-1-one] | < 1000 |
